Columns and labels:
[1] = Cell cytotoxicity (CC50); type: cell-based; details: human; mean of at least two experiments
Text: (§1) Compounds were subjected to RSV plaque reduction assays according to the following protocol. Plaque EC50 and cell toxicity CC50 values are a mean of at least two experiments and figures are rounded to whole units.
(§2) Plates were scanned and analysed using the Immunospot S6 Macro analyser, which is equipped with BioSpot analysis software for counting immunostained plaques (virospots). Plaque counts were used to calculate % c infection relative to the mean of the plaque count in the virus control wells for RSV. The EC50 value was calculated as 50% reduction in signal, respectively, by interpolation of inhibition curves fitted with a 4-parameter nonlinear regression with a variable slope in Dotmatics. Plaque EC50 and cell toxicity CC50 values are a mean of at least two experiments and figures are rounded to whole units.

[2] = tested on: RSV A2; assay: RSV plaque reduction assay; type: cell-based, respiratory syncytial virus (RSV); details: human respiratory syncytial virus, HepG2, Hep-G2 cells, mean of at least two experiments
Experimental: as §1
Hep-G2 cells (ECACC, 85011430) were passaged in flasks and seeded in 24-well plates in DMEM containing antibiotics and supplemented with 10% FBS. During inoculation and subsequent incubation, cells were cultured in DMEM containing 2% FBS. 100 plaque forming unit/well of RSV (RSV A2 ECACC, 0709161v) was mixed with eight serial dilutions of compound. Subsequently, 100 μL of the virus/compound mixtures was added to confluent Hep-G2 cell monolayers. The cells and virus/compound mixtures were incubated at 37° C. in a humidified 5% CO2 incubator for 2 h prior to removal of the inoculum and addition of 1 mL of overlay (DMEM containing 2% FBS and 0.8% CMC) containing compound dilutions. The cells and were incubated at 37° C. in a humidified 5% CO2 incubator for 2 days.
Cells were washed with PBS before adding 75/25% […] EtOH/MeOH, for 3 min. Fixative was removed and plates were washed with PBS. A pre-titrated amount of the primary antibody was added in 200 μL PBS/2% milk powder, and plates incubated for 90 min at 37° C. The plates were washed 3 times with PBS/0.05% Tween20 before addition of rabbit anti-goat horse radish peroxidase in 200 μL PBS/2% milk powder, and incubated for 1 h at 37° C. Following three wash steps with PBS/0.05% Tween20, 200 μL ready-to-use TrueBlue was added and plates were incubated at rt for 10-15 min before washing with water. After removal of water, plates were air-dried in the dark.
as §2

SMILES | CC50 [1] [nM] | EC50 [2] [nM]
Cc1ccc2nc(-c3cncc(C(F)(F)F)c3)c(C(=O)N[C@H]3N=C(c4ccccc4)c4ccccc4NC3=O)n2n1 [Example 46, 6-Methyl-N-[(3S)-2-oxo-5-phenyl-1,3-dihydro-1,4-benzodiazepin-3-yl]-2-[5-(trifluoromethyl)pyridin-3-yl]imidazo[1,2-b]pyridazine-3-carboxamide] | > 25000 | 94
C[C@H]1COCCN1c1ccc(-c2nn3cccnc3c2C(=O)N[C@H]2N=C(c3ccccc3)c3ccccc3NC2=O)cn1 (single isomer, unassigned) [Example 124, 2-(6-[(3S*)-3-methylmorpholin-4-yl]pyridin-3-yl)-N-[(3S)-2-oxo-5-phenyl-2,3-dihydro-1H-1,4-benzodiazepin-3-yl]pyrazolo[1,5-a]pyrimidine-3-carboxamide] | > 25000 | 83
Cc1ccc(F)c(-c2nn3cccnc3c2C(=O)N[C@H]2N=C(c3ccccc3)c3cccc(F)c3NC2=O)c1 [Example 26, 2-(2-Fluoro-5-methylphenyl)-N-[(3S)-9-fluoro-2-oxo-5-phenyl-1,3-dihydro-1,4-benzodiazepin-3-yl]pyrazolo[1,5-a]pyrimidine-3-carboxamide] | 8770 | 53
CCc1ccc(-c2nn3cccnc3c2C(=O)N[C@H]2N=C(c3ccccc3)c3ccccc3NC2=O)c(C)n1 [Example 56] | > 25000 | 63
Cc1ccc(F)c(-c2nn3cccnc3c2C(=O)N[C@H]2N=C(c3ccccc3)c3ccccc3NC2=O)c1 [Example 25, 2-(2-Fluoro-5-methylphenyl)-N-[(3S)-2-oxo-5-phenyl-1,3-dihydro-1,4-benzodiazepin-3-yl]pyrazolo[1,5-a]pyrimidine-3-carboxamide] | 15400 | 116
COc1ccc(-c2nn3cccnc3c2C(=O)N[C@H]2N=C(c3ccccc3)c3cccc(F)c3NC2=O)cn1 [Example 76, N-[(3S)-9-fluoro-2-oxo-5-phenyl-1,3-dihydro-1,4-benzodiazepin-3-yl]-2-(6-methoxypyridin-3-yl)pyrazolo[1,5-a]pyrimidine-3-carboxamide] | > 25000 | 93
CC(C)Nc1ccc(-c2nn3cccnc3c2C(=O)N[C@H]2N=C(c3ccccc3)c3ccccc3NC2=O)cn1 [Example 73, N-[(3S)-2-oxo-5-phenyl-1,3-dihydro-1,4-benzodiazepin-3-yl]-2-[6-(propan-2-ylamino)pyridin-3-yl]pyrazolo[1,5-a]pyrimidine-3-carboxamide] | > 25000 | 45
C[C@H]1COCCN1c1ccc(-c2nn3cccnc3c2C(=O)N[C@H]2N=C(c3ccccc3)c3cccc(F)c3NC2=O)cn1 (single isomer, unassigned) [Example 125, N-[(3S)-9-fluoro-2-oxo-5-phenyl-2,3-dihydro-1H-1,4-benzodiazepin-3-yl]-2-{6-[(3S*)-3-methylmorpholin-4-yl]pyridin-3-yl}pyrazolo[1,5-a]pyrimidine-3-carboxamide] | > 25000 | 87
Cn1ccc2cc(-c3nn4cccnc4c3C(=O)N[C@H]3N=C(c4ccccc4)c4cccc(F)c4NC3=O)cnc21 [Example 71, N-[(3S)-9-fluoro-2-oxo-5-phenyl-1,3-dihydro-1,4-benzodiazepin-3-yl]-2-(1-methylpyrrolo[2,3-b]pyridin-5-yl)pyrazolo[1,5-a]pyrimidine-3-carboxamide] | > 25000 | 101
Cc1ccc2nc(-c3ccc(F)cc3F)c(C(=O)N[C@H]3N=C(c4ccccc4)c4ccccc4NC3=O)n2n1 [Example 90, 2-(2,4-Difluorophenyl)-6-methyl-N-[(3S)-2-oxo-5-phenyl-1,3-dihydro-1,4-benzodiazepin-3-yl]imidazo[1,2-b]pyridazine-3-carboxamide] | > 25000 | 8
CCc1ccc(-c2nc3ccc(Cl)nn3c2C(=O)N[C@H]2N=C(c3ccccc3)c3cccc(F)c3NC2=O)cn1 [Example 117, 6-Chloro-2-(6-ethylpyridin-3-yl)-N-[(3S)-9-fluoro-2-oxo-5-phenyl-1,3-dihydro-1,4-benzodiazepin-3-yl]imidazo[1,2-b]pyridazine-3-carboxamide] | > 25000 | 27
Cc1ccc2nc(-c3cncc(C(F)(F)F)c3)c(C(=O)N[C@H]3N=C(c4ccccc4)c4cccc(F)c4NC3=O)n2n1 [Example 47, N-[(3S)-9-fluoro-2-oxo-5-phenyl-1,3-dihydro-1,4-benzodiazepin-3-yl]-6-methyl-2-[5-(trifluoromethyl)pyridin-3-yl]imidazo[1,2-b]pyridazine-3-carboxamide] | > 25000 | 101
O=C(N[C@H]1N=C(c2ccccc2)c2ccccc2NC1=O)c1c(-c2cc(F)ccc2F)nn2cccnc12 [Example 6, 2-(2,5-Difluorophenyl)-N-[(3S)-2-oxo-5-phenyl-1,3-dihydro-1,4-benzodiazepin-3-yl]pyrazolo[1,5-a]pyrimidine-3-carboxamide] | > 25000 | 94
COc1ccc2nc(-c3ccc(C)cn3)c(C(=O)N[C@H]3N=C(c4ccccc4)c4cccc(F)c4NC3=O)n2n1 [Example 120, N-[(3S)-9-fluoro-2-oxo-5-phenyl-1,3-dihydro-1,4-benzodiazepin-3-yl]-6-methoxy-2-(6-methyipyridin-3-yl)imidazo[1,2-b]pyridazine-3-carboxamide] | > 25000 | 101
CN1C[C@H]2C[C@@H]1CN2c1ccn2nc(-c3ccccc3F)c(C(=O)N[C@H]3N=C(c4ccccc4)c4cccc(F)c4NC3=O)c2n1 [Example 84, N-[(3S)-9-fluoro-2-oxo-5-phenyl-1,3-dihydro-1,4-benzodiazepin-3-yl]-2-(2-fluorophenyl)[(1R,4R)-5-methyl-2,5-diazabicyclo[2.2.1]heptan-2-yl]pyrazolo[1,5-a]pyrimidine-3-carboxamide] | 16300 | 95
COCCOc1ccc2nc(-c3ccccc3F)c(C(=O)N[C@H]3N=C(c4ccccc4)c4cccc(F)c4NC3=O)n2n1 [Example 110, N-[(3S)-9-Fluoro-2-oxo-5-phenyl-1,3-dihydro-1,4-benzodiazepin-3-yl]-2-(2-fluorophenyl)-6-(2-methoxyethoxy)imidazo[1,2-b]pyridazine-3-carboxamide] | > 25000 | 73
O=C(N[C@H]1N=C(c2ccccc2)c2cccc(F)c2NC1=O)c1c(-c2ccccc2)nc2ccc(N3CCOCC3)nn12 [Example 83, N-[(3S)-9-fluoro-2-oxo-5-phenyl-1,3-dihydro-1,4-benzodiazepin-3-yl]-6-morpholin-4-yl-2-phenylimidazo[1,2-b]pyridazine-3-carboxamide] | > 25000 | 118
O=C(N[C@H]1N=C(c2ccccc2)c2ccccc2NC1=O)c1c(-c2ccc(N3CCCC3)cc2F)nn2cccnc12 [Example 45, 2-(2-Fluoro-4-pyrrolidin-1-ylphenyl)-N-[(3S)-2-oxo-5-phenyl-1,3-dihydro-1,4-benzodiazepin-3-yl]pyrazolo[1,5-a]pyrimidine-3-carboxamide] | > 25000 | 103
CC(C)(O)Cc1ccc(-c2nn3cccnc3c2C(=O)N[C@H]2N=C(c3ccccc3)c3cccc(F)c3NC2=O)cn1 [Example 77, 2-[6-(2-Hydroxy-2-methylpropyl)pyridin-3-yl]-N-[(3S)-9-fluoro-2-oxo-5-phenyl-1,3-dihydro-1,4-benzodiazepin-3-yl]pyrazolo[1,5-a]pyrimidine-3-carboxamide] | > 25000 | 104
Cc1ccc(-c2nn3cccnc3c2C(=O)N[C@H]2N=C(c3ccccc3)c3ccccc3NC2=O)cn1 [Example 49, 2-(6-Methylpyridin-3-yl)-N-[(3S)-2-oxo-5-phenyl-1,3-dihydro-1,4-benzodiazepin-3-yl]pyrazolo[1,5-a]pyrimidine-3-carboxamide] | > 25000 | 100
Cc1cc(-c2nc3ccc(C)nn3c2C(=O)N[C@H]2N=C(c3ccccc3)c3ccccc3NC2=O)ccn1 [Example 97, 6-Methyl-2-(2-methylpyridin-4-yl)-N-[(3S)-2-oxo-5-phenyl-1,3-dihydro-1,4-benzodiazepin-3-yl]imidazo[1,2-b]pyridazine-3-carboxamide] | > 25000 | 49
Cc1cnc2c(C(=O)N[C@H]3N=C(c4ccccc4)c4ccccc4NC3=O)c(-c3ccccc3F)nn2c1 [Example 33, 2-(2-Fluorophenyl)-6-methyl-N-[(3S)-2-oxo-5-phenyl-1,3-dihydro-1,4-benzodiazepin-3-yl]pyrazolo[1,5-a]pyrimidine-3-carboxamide] | > 25000 | 29

— US11634425B2, “Pharmaceutical compounds” (priority 2019, dated 2023)
